Assays:
[1] = test system: normal human keratinocytes on laminin V; test: Adhesion of normal human keratinocytes on laminin V (colorimetric crystal violet adherence test); format: cell-based; conditions: manganese chloride 0.5 mM, 45 minutes
Method: The culture medium employed was the defined medium for keratinocyte culture 154 (+additive HKGS) manufactured by Cascade Inc. (USA) and marketed by Tebu (France) containing 0.2 mM of CaCl2, pH 7.2 to 7.4. The keratinocytes were obtained according to the technique described by Boyce and Ham (Boyce S T, Ham R G, J. Invest. Dermatol., 1983, 81, 33s-40s). Pieces of human skin obtain from human prepuces (circumcision) were treated in a manner to isolate their basal human keratinocytes. 3·10^4 live cells were then seeded per cm^2 on 25-cm^2 tissue culture dishes (Coming, Polylabo, France). The keratinocytes were cultured at 37° C. in an incubator with CO2 (5% of CO2, 95% of air and 98% humidity). The medium was changed every two days. Subculture took place when the cells reached subconfluence. The cell layer was then rinsed with PBS, then the cells were trypsinated using the conventional trypsination technique (Trypsin-EDTA (0.05-0.02%) at 37° C.). The cells were then seeded in 75-cm^2 culture dishes. Collagen IV (Becton Dickinson, France), fibronectin (Becton Dickinson, France) and laminin 5, purified in the laboratory (Pousselle P. et al., J. Cell. Biol., 1991, 114(3); 567-576) were used in our experiments. […] An absorbance reading was performed at 570 nm using an ELISA plate reader. […] We then calculated the means of the three absorbance values for each of the triplicates. […]

[2] = test system: normal human keratinocytes on collagen IV; test: Adhesion of normal human keratinocytes on collagen IV (colorimetric crystal violet adherence test); format: cell-based; conditions: manganese chloride 0.5 mM, 45 minutes
Method: The culture medium employed was the defined medium for keratinocyte culture 154 (+additive HKGS) manufactured by Cascade Inc. (USA) and marketed by Tebu (France) containing 0.2 mM of CaCl2, pH 7.2 to 7.4. The keratinocytes were obtained according to the technique described by Boyce and Ham (Boyce S T, Ham R G, J. Invest. Dermatol., 1983, 81, 33s-40s). Pieces of human skin obtain from human prepuces (circumcision) were treated in a manner to isolate their basal human keratinocytes. 3·10^4 live cells were then seeded per cm^2 on 25-cm^2 tissue culture dishes (Coming, Polylabo, France). The keratinocytes were cultured at 37° C. in an incubator with CO2 (5% of CO2, 95% of air and 98% humidity). The medium was changed every two days. Subculture took place when the cells reached subconfluence. The cell layer was then rinsed with PBS, then the cells were trypsinated using the conventional trypsination technique (Trypsin-EDTA (0.05-0.02%) at 37° C.). The cells were then seeded in 75-cm^2 culture dishes. Collagen IV (Becton Dickinson, France), fibronectin (Becton Dickinson, France) and laminin 5, purified in the laboratory (Pousselle P. et al., J. Cell. Biol., 1991, 114(3); 567-576) were used in our experiments. […] An absorbance reading was performed at 570 nm using an ELISA plate reader. […] We then calculated the means of the three absorbance values for each of the triplicates.

Manganese chloride [MnCl2]
% adherence (cells alone = 100%) ([1]; Laminin 5 1.5 μg/ml): 109%
% adherence (cells alone = 100%) ([1]; Laminin 5 3 μg/ml): 97%
% adherence (cells alone = 100%) ([2]; Collagen IV 10 μg/ml): 280%
% adherence (cells alone = 100%) ([2]; Collagen IV 20 μg/ml): 357%
